Reference: patent US11028084B2, “Selective inhibitors of gentotoxic steress-induced IKK/NF-κB pathways” (Max-Delbrück-Centrum für Molekulare Medizin in der …, priority 2016, dated 2021)

What was measured:
[1] = tested on: genotoxic stress-activated NF-κB signaling; test: TAK1 and p65 S536 phosphorylation after γ-irradiation, WB, HepG2 cells; assay type: cell-based, human; settings: HepG2, 90 min after irradiation, PARP inhibitors
Method: FIG. 6: (A) U2OS cells were pre-treated with DMSO or MW01 and irradiated. Stimulation of cell with IL-1β served as a positive control for IκBα and p65 phosphorylation. Cells were lysed at indicated time points and used for WB analyses. (B,C) Similar experimental setup as in (A). (D) Experiment as in (A-C), but with other time points analysed and performed with HepG2 cells. PARP1 and LDH serve as loading controls.
(§1) FIG. 9: HepG2 cells were pre-incubated with DMSO, MW01 (5 μM) or the ATM inhibitor Ku55933 (10 μM) and irradiated. After 60 min cells were harvested and processed. Immunochemical staining of Western blotting membranes was done using indicated antibodies.
(§2) FIG. 14: (A) U2OS cells were pre-treated with different concentrations of olaparib prior to co-treatment with etoposide. Whole cell lysis was performed after 90 min and cleared lysates were used for WB with indicated antibodies. (B) U2OS cells were pre-treated with DMSO, olaparib or the ATM inhibitor Ku55933 and co-treated with etoposide. Cells were harvested after 45 min and subjected to SDS-PAGE/WB. Membranes were stained with the indicated antibodies. The experiment of (B) was performed simultaneously to the experiments of (A) and (E) to control functionality of olaparib in inhibiting PAR chain formation. (C) Densitometrical analyses of (A) and two further independent experiments done as shown in (A). (D) U2OS cells were pre-treated with the substances as indicated prior to irradiation. After 90 min mRNA was isolated, transcribed into cDNA and was used for expression analyses of the indicated genes using quantitative real-time PCR (qRT-PCR). (E) HepG2 cells were pre-treated with the PARP inhibitors olaparib, 3-AB and EB-47 prior to γ-irradiation. Cells were harvested after 15 and 90 min and subjected to SDS-PAGE/WB. Membranes were stained with the indicated antibodies. Error bars equal SEM.

PARP1 [2] = biological target: T1, PARP1 (Mus musculus, UniProt P11103); test: PARP1 enzymatic activity, PAR chain formation after γ-irradiation, MEF cells; assay type: cell-based
T1 construct: endogenous in cells; host or cells: MEF (mouse embryonic fibroblasts)
T1 sequence (P11103 whole entry): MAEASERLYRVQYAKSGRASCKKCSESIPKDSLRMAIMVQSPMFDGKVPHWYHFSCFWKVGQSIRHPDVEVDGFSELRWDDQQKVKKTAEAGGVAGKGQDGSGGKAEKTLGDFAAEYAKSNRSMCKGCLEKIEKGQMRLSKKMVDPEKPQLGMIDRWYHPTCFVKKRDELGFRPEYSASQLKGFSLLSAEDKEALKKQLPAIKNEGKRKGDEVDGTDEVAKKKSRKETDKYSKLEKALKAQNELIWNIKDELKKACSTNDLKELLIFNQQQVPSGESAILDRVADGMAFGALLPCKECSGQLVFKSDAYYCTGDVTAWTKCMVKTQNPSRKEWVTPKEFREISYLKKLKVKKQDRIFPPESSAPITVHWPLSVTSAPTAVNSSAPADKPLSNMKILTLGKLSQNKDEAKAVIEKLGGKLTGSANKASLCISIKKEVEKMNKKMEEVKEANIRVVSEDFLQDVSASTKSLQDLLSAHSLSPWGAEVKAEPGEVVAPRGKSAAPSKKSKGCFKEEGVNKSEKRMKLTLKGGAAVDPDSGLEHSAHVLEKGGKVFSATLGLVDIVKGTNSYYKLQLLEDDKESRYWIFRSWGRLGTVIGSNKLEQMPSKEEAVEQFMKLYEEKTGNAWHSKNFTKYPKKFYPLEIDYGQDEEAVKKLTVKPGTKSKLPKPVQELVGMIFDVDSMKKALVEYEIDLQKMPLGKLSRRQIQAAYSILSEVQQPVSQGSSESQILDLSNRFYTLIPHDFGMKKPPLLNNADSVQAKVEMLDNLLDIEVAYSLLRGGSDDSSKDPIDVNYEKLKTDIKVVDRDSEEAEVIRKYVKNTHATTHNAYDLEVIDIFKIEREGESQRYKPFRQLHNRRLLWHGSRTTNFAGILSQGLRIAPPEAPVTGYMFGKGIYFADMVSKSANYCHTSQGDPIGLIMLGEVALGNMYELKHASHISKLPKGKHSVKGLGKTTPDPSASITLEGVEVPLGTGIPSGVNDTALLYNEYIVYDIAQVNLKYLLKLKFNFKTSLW
From the text: FIG. 10: (A) MEF cells were pre-treated with the indicated substances, irradiated and cell lysates were used for poly(ADP)-ribose probing using a specific antibody. (B) Experiment performed as described for (A), but using U2OS cells.

PARP1 [3] = biological target: T1, PARP1; settings: MEF, after etoposide administration (Stilmann et al.; 2009); cited from earlier work
PARP1 [4] = biological target: T2, PARP1 (Homo sapiens, UniProt P09874); test: PAR chain formation after γ-irradiation, HepG2 cells; assay type: cell-based; parameters: endogenous in cells; settings: HepG2, 15 min after irradiation
T2 sequence (P09874 whole entry): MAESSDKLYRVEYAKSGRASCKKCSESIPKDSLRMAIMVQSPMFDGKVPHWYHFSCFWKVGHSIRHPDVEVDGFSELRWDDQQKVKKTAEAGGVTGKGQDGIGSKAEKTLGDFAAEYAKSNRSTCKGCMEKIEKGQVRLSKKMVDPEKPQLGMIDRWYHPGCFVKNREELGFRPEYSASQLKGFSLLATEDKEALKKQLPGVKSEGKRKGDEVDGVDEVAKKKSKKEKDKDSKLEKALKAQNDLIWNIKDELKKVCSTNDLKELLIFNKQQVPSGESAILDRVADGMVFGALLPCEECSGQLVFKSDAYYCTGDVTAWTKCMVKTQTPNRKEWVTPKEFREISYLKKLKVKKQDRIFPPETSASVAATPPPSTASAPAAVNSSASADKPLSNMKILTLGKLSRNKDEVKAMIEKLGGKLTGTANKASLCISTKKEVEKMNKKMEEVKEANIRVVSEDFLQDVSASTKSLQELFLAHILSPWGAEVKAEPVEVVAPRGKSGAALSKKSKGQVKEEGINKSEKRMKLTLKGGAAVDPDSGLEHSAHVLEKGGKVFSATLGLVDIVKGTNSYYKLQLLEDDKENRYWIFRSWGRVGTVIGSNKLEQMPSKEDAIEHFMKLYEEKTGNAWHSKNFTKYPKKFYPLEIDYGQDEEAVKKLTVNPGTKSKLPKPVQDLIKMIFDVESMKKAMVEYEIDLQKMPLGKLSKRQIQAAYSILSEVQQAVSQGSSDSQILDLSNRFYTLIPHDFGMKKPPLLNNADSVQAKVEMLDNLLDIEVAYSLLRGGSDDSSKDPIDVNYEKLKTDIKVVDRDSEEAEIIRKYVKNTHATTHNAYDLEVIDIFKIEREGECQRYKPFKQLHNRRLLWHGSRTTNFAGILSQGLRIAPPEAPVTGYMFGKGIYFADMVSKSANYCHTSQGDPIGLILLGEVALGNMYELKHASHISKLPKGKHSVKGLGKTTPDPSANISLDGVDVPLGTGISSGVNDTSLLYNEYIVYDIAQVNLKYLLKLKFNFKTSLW
Method: as §2

[5] = tested on: NF-κB DNA binding activity; settings: HEK293; data not shown, personal communication; cited from earlier work
PARP1 [6] = biological target: T2, PARP1; settings: HepG2, after γ-irradiation (Stilmann et al.; 2009); cited from earlier work
ATM = biological target: T3, ATM (Homo sapiens, UniProt Q13315); test: Enzymatic activity of ATM in γ-irradiated HepG2 cells, WB of ATM and substrate phosphorylation; assay type: cell-based; settings: HepG2, γ-irradiation, 60 min; MW01 5 μM, Ku55933 10 μM
T3 construct: endogenous in cells; host or cells: HepG2
T3 sequence (Q13315 whole entry): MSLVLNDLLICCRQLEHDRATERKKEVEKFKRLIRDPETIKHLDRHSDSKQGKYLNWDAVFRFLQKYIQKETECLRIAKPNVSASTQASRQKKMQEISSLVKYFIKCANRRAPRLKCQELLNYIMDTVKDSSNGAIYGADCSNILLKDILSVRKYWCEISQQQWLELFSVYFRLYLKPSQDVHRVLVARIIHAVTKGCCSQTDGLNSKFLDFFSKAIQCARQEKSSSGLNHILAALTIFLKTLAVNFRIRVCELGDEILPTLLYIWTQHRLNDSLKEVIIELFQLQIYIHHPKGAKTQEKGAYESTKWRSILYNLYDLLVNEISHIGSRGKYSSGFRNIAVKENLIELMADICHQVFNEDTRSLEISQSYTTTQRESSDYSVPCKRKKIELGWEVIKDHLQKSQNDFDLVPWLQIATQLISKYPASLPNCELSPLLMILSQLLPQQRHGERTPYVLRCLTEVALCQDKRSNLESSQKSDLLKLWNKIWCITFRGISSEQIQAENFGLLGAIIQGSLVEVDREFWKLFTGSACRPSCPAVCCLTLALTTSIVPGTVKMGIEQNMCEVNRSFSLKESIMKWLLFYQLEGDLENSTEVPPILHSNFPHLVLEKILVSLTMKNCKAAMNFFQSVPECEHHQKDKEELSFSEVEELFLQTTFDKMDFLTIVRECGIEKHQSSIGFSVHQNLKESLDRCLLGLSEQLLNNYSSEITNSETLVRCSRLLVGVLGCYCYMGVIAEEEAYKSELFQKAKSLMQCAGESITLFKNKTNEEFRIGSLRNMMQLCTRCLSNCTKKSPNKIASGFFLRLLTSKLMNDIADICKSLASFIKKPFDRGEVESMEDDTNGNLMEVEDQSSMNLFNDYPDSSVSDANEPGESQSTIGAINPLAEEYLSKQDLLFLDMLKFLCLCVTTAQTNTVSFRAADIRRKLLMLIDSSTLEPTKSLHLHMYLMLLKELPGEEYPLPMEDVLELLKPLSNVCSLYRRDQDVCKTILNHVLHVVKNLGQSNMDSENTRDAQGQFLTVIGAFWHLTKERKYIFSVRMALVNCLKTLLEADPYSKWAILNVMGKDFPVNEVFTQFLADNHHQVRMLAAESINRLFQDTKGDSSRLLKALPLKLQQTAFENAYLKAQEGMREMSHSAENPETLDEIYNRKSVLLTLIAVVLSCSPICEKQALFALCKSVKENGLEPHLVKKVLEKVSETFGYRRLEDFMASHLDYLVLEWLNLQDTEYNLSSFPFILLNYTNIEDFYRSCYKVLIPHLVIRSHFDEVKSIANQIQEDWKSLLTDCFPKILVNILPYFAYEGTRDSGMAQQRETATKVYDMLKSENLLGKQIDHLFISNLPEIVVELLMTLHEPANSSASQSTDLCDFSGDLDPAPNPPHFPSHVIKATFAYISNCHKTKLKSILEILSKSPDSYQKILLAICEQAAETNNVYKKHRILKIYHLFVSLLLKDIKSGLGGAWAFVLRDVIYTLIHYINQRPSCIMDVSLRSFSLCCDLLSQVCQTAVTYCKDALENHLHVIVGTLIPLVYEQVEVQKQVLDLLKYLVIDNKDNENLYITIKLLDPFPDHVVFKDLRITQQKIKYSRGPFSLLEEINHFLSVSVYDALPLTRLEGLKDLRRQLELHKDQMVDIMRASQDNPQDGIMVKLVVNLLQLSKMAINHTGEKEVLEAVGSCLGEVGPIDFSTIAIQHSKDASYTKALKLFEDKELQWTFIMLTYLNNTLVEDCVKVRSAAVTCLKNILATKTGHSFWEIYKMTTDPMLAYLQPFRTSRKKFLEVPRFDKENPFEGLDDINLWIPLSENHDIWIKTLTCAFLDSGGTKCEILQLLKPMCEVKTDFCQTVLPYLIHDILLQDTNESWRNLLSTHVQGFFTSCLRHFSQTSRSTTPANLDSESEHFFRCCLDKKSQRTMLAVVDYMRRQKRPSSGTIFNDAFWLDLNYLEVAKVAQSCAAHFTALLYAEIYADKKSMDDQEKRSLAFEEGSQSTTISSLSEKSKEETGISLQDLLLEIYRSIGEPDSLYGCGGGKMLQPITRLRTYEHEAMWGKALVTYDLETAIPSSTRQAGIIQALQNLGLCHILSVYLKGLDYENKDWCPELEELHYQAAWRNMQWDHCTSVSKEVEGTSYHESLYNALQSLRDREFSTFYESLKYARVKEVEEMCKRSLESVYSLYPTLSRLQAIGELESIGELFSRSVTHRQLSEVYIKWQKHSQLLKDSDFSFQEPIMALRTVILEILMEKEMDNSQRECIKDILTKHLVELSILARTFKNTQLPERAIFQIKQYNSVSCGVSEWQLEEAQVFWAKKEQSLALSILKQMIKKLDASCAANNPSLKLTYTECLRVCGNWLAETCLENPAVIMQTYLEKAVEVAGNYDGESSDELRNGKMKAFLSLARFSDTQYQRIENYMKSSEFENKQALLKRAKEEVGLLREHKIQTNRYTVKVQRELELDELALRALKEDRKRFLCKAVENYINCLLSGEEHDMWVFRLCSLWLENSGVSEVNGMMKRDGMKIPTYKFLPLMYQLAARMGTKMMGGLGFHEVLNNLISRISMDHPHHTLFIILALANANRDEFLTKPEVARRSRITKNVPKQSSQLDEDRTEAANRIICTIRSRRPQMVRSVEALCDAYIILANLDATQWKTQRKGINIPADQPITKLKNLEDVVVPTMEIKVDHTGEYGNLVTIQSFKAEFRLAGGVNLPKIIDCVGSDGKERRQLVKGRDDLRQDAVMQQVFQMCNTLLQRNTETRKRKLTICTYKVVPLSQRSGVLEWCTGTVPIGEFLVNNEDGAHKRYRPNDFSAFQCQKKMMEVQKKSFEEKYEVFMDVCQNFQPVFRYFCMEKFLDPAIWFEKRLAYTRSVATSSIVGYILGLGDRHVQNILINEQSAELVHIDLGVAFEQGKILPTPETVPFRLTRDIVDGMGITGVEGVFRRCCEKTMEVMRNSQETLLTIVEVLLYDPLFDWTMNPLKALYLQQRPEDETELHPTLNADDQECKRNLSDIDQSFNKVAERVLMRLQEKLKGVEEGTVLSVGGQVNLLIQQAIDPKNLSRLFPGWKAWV
Method: as §1

[7] = tested on: NF-κB target genes NFKBIA, TNFAIP3, CXCL8; test: qRT-PCR of NF-κB target genes after irradiation, U2OS cells; assay type: cell-based, human; settings: 90 min after irradiation
Method: as §2
To quantitate specific mRNA (messenger RNA) species in samples RNA was isolated, RNA concentration was measured and mRNA was transcribed into cDNA. The amount of mRNA transcripts of certain genes within a sample was quantified by employing gene specific primers and using a C-1000 Thermal cycler (Biorad). The expression of genes of interest was normalised against two or three reference genes (HRPT1, RPL_13a and B2M) using the CFX manager software. The fold induction of mRNA was calculated over untreated sample levels by the ΔΔ-Ct method.

[8] = tested on: genotoxic stress-induced phosphorylation of p65 at S536; test: Structure-activity-relationship: p-p65 S536/p65 densitometry after etoposide, U2OS cells; assay type: cell-based, human; settings: 10 μM, 2 h prior to etoposide, normalised to DMSO/etoposide
Method: FIG. 13: (A) U2OS cells were pre-treated with DMSO, MW01 or its derivatives MW01A1-MW01C5 at concentrations of 10 μM for 2 h prior to etoposide treatment. After incubation with etoposide cells were harvested, lysed and subjected to SDS-PAGE/WB. Phospho-[…] p65 signal intensities as well as p65 signal intensities were detected using a CCD camera and band intensities were used for densitometrical analyses. DMSO and etoposide treated control was set to 1. Four independent experiments were performed and statistical outliers were identified and eliminated using Grubb's test. […] (B) NFkB/293/GFP-luc cells were pre-treated with DMSO, MW01 or its derivatives MW01D01-MW01D18 at concentrations of 10 μM for 1.5 h prior to etoposide treatment. After incubation for 4.5 hours NF-κB-dependent luciferase expression was measured by detection of chemoluminescence. DMSO and etoposide treated control was set to 1. Twelve independent experiments were performed.
Different derivatives of MW01 were obtained (FIG. 12 A) and tested for their ability to inhibit genotoxic stress-induced phosphorylation of p65 at S536. Densitometry of western blot bands was used to quantify signal intensities of the p65 S536 phosphorylation and total p65 amount. The signal intensities of the p65 S536 phosphorylation were normalised to the signal intensities of total p65 and the quotients were normalised to DMSO/etoposide and compared with MW01/etoposide co-treated samples (FIG. 13). […] Compared to MW01, these compounds are derivatives in which the hydroxyl group was exchanged with a small substitute either fluoride, chloride or a methyl group, respectively. Furthermore, MW01C3 and MW01C4 differed in the substitution of the aromatic ring system V (FIG. 12 B) regarding the two methoxy groups that are missing.

p65 S536 phosphorylation = p65 S536 phosphorylation after γ-IR or etoposide, SDS-PAGE/WB, U2OS cells; assay type: cell-based, human
Method: FIG. 3: (A) U2OS cells were pre-treated with increasing concentrations of MW01 in duplicates in a 384 well plate. Then, cells were treated with etoposide, fixed and subjected to IF of p65. Spatial measurement of p65 cytosolic and nuclear localisation was used for calculation of p65 translocation rates. (B) U2OS cells were pre-treated with DMSO, MW01 and irradiated with γ-IR. After 90 min cells were lysed and subjected to SDS-PAGE/WB and EMSA. (C) Cells were pre-treated with different concentrations of MW01 as indicated, treated with γ-IR (C) or etoposide (D) and subjected to WB or EMSA, respectively. LDH in (C) represents the loading control.
as §2, with “Cells were harvested after 15 and 90 min and subjected to SDS-PAGE/WB. Membranes were stained with the indicated antibodies. Error bars equal SEM.” left out
After transfer of proteins on PVDF membranes unspecific binding of antibodies was blocked by incubation of membranes in 5% skim milk powder in TBST buffer (or 3% BSA in TBST for phosphorylation-specific antibodies) for 1 h at RT. […] After three times of washing with TBST and once with PBS for 5 min, chemiluminescent photon emission was detected using a CCD camera system (Fusion Solo). […]

Nc1ncnc2c1ncn2[C@@H]1O[C@H](C(=O)N2CCN(CC(=O)Nc3cccc4c3CNC4=O)CC2)[C@@H](O)[C@H]1O [EB-47]
phosphorylation of p65 at S536 [1]: detected
PAR chain formation / PARP1 enzymatic activity (PARP1 [2]): inhibition of PAR chain formation
PAR chain formation and NF-κB binding activity (PARP1 [3]): abrogated PAR chain formation and NF-κB binding activity
PAR chain formation (PARP1 [4]): abolished

NC(=O)c1cccc(N)c1 [Example 3-AB]
phosphorylation of p65 at S536 [1]: decreased phosphorylation
PAR chain formation / PARP1 enzymatic activity (PARP1 [2]): inhibition of PAR chain formation
NF-κB DNA binding activity [5]: did not abolish
PAR chain formation and NF-κB DNA binding activity (PARP1 [6]): inhibited PAR chain formation and NF-κB DNA binding activity
PAR chain formation and NF-κB binding activity (PARP1 [3]): abrogated PAR chain formation and NF-κB binding activity
PAR chain formation (PARP1 [4]): abolished

O=c1cc(-c2cccc3c2Sc2ccccc2S3)oc(N2CCOCC2)c1 [KU55933, reference compound]
ATM auto-phosphorylation and phosphorylation of the ATM substrates p53 and KAP1 (ATM): inhibited
phosphorylation state of p53bp1 (ATM): inhibited
NFKBIA, TNFAIP3 and CXCL8 mRNA induction upon irradiation [7]: complete inhibition

COc1ccc2c3ccnc4c5ccc(OC)c(OC)c5c(=O)n(c2c1)c34 [MW01C1, 6,7,11-trimethoxy-8H-benzo[c]indolo[3,2,1-ij][1,5]naphthyridin-8-one]
p-p65/p65 ratio (inhibition of NF-κB activation following etoposide co-treatment) [8]: highly potent derivative

COc1ccc2c(c1OC)c(=O)n1c3ccc(F)cc3c3ccnc2c31 [MW01C2, 12-fluoro-6,7-dimethoxy-8H-benzo[c]indolo[3,2,1-ij][1,5]naphthyridin-8-one]
p-p65/p65 ratio (inhibition of NF-κB activation following etoposide co-treatment) [8]: lowest p-p65/p65 ratios

Cc1ccc2c(c1)c1ccnc3c4ccccc4c(=O)n2c13 [MW01C3, 12-methyl-8H-benzo[c]indolo[3,2,1-ij][1,5]naphthyridin-8-one]
p-p65/p65 ratio (inhibition of NF-κB activation following etoposide co-treatment) [8]: lowest p-p65/p65 ratios

O=c1c2ccccc2c2nccc3c4cc(Cl)ccc4n1c32 [MW01C4, 12-chloro-8H-benzo[c]indolo[3,2,1-ij][1,5]naphthyridin-8-one]
p-p65/p65 ratio (inhibition of NF-κB activation following etoposide co-treatment) [8]: lowest p-p65/p65 ratios

O=C(c1cc(Cc2n[nH]c(=O)c3ccccc23)ccc1F)N1CCN(C(=O)C2CC2)CC1 [olaparib]
p65 S536 phosphorylation in comparison to DMSO/etoposide co-treated controls (p65 S536 phosphorylation; 0.63 μM to 10.0 μM, 90 min after etoposide): No significant decrease
signal intensity ratio of S536 phosphorylated p65 and total p65 (densitometry, three experiments) (p65 S536 phosphorylation; etoposide co-treatment): did not influence
phosphorylation of p65 at S536 [1]: decreased phosphorylation
NFKBIA, TNFAIP3 and CXCL8 mRNA induction upon irradiation [7]: did not change
